The nature of series [1]: Average particle size by particle size distribution analyzer. It counts as physicochemical. The settings on record: D-form crystal. The source says: The content of residual solvent may be determined in a known manner, for example, by gas chromatography. The details on gas chromatography can be found in the Japanese Pharmacopoeia, 13th Edition, published by Hirokawa Publishing Co. (1996) pp. B83-B94, the Japanese Pharmacopoeia, 14th Edition, published by Hirokawa Publishing Co. (2001) pp. B98-B114 and elsewhere. In general, gas chromatography will cause a measurement error falling within around ±1%. The compound of the present invention can also be determined for its average particle size in a known manner or using various devices that are commercially available, such as a dry particle size distribution analyzer. In general, such a particle size distribution analyzer will cause a measurement error falling within around ±5%.
In these examples and comparison examples, X-ray diffractometry was performed using a powder X-ray diffractometer RINT-1100 (Rigaku), the content of residual solvent was determined using a gas chromatograph GC-17A (Shimadzu Corp.), and the average particle size was determined using a particle size distribution analyzer RPS-95 (Seishin Enterprise Co., Ltd.).

For series [2] the following is noted: reported in JP 9-100291 A; cited from earlier work.

The structures appear in SMILES notation.

`CC[C@H]1OC(=O)[C@H](C)[C@@H](O[C@H]2C[C@@](C)(OC)[C@@H](O)[C@H](C)O2)[C@H](C)[C@@H](O[C@@H]2O[C@H](C)C[C@H](N(C)C(C)C)[C@H]2O)[C@]2(C)CC(C)=C(O2)[C@H](C)C(=O)[C@]1(C)OC` [Example 7]: the “Particle size (average particle size)” value in series [1] came out at 163 μm.

Turning to `CC[C@H]1OC(=O)[C@H](C)[C@@H](O[C@H]2C[C@@](C)(OC)[C@@H](O)[C@H](C)O2)[C@H](C)[C@@H](O[C@@H]2O[C@H](C)C[C@H](N(C)C(C)C)[C@H]2O)[C@]2(C)CC(C)=C(O2)[C@H](C)C(=O)[C@]1(C)OC` [D-type crystal], in series [2], the “Stability compared with the A-type and C-type crystals” value is listed as “superior in stability”. Take `CC[C@H]1OC(=O)[C@H](C)[C@@H](O[C@H]2C[C@@](C)(OC)[C@@H](O)[C@H](C)O2)[C@H](C)[C@@H](O[C@@H]2O[C@H](C)C[C@H](N(C)C(C)C)[C@H]2O)[C@]2(C)CC(C)=C(O2)[C@H](C)C(=O)[C@]1(C)OC` [Example 2]: the “Particle size (average particle size)” value in series [1] was found to be 302 μm. On the same count and under the same terms, for `CC[C@H]1OC(=O)[C@H](C)[C@@H](O[C@H]2C[C@@](C)(OC)[C@@H](O)[C@H](C)O2)[C@H](C)[C@@H](O[C@@H]2O[C@H](C)C[C@H](N(C)C(C)C)[C@H]2O)[C@]2(C)CC(C)=C(O2)[C@H](C)C(=O)[C@]1(C)OC` [Example 3] the value was 197 μm. For `CC[C@H]1OC(=O)[C@H](C)[C@@H](O[C@H]2C[C@@](C)(OC)[C@@H](O)[C@H](C)O2)[C@H](C)[C@@H](O[C@@H]2O[C@H](C)C[C@H](N(C)C(C)C)[C@H]2O)[C@]2(C)CC(C)=C(O2)[C@H](C)C(=O)[C@]1(C)OC` [Comparison Example 2, reference compound], the “Particle size (average particle size)” value in series [1] stood at 61 μm. Still for that read-out and setting: for `CC[C@H]1OC(=O)[C@H](C)[C@@H](O[C@H]2C[C@@](C)(OC)[C@@H](O)[C@H](C)O2)[C@H](C)[C@@H](O[C@@H]2O[C@H](C)C[C@H](N(C)C(C)C)[C@H]2O)[C@]2(C)CC(C)=C(O2)[C@H](C)C(=O)[C@]1(C)OC` [Comparison Example 1, reference compound] the value was 82 μm. On the same count and under the same terms, with `CC[C@H]1OC(=O)[C@H](C)[C@@H](O[C@H]2C[C@@](C)(OC)[C@@H](O)[C@H](C)O2)[C@H](C)[C@@H](O[C@@H]2O[C@H](C)C[C@H](N(C)C(C)C)[C@H]2O)[C@]2(C)CC(C)=C(O2)[C@H](C)C(=O)[C@]1(C)OC` [Example 8] the figure was 185 μm.

These data come from patent US7645864B2, “Erythromycin derivative having novel crystal structures and processes for their production” (Chugai Seiyaku Kabushiki Kaisha, priority 2001, dated 2010).
